Test results from article PMC8000814, “Structure-Based Virtual Screening: Identification of a Novel NS2B-NS3 Protease Inhibitor with Potent Antiviral Activity against Zika and Dengue Viruses” (Microorganisms, 2021).

Target: T1, ZIKV NS2B-NS3 protease (Zika virus ZIKV/H. sapiens/FrenchPolynesia/10087PF/2013, UniProt A0A024B7W1)
T1 construct: recombinant NS2B-NS3 protease cut from the ZIKV genome polyprotein; codon-optimized synthetic gene in pET22b; His-tag fused; E. coli BL21(DE3); Ni-NTA purified
Assay: fluorescence-based protease inhibition assay, ex […] nm / em […] nm
Format: biochemical
Settings: read-out: apparent IC50

T1 sequence (A0A024B7W1 1503-1680): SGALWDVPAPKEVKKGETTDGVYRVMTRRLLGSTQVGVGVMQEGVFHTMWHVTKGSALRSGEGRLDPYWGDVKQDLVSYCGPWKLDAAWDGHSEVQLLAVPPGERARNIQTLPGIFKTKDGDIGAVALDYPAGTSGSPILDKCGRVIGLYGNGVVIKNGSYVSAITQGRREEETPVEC

`O=[N+]([O-])c1ccc(Nc2ccc3[nH]ncc3c2)nc1N1CCNCC1` [compound 1] gave an IC50 of 1.5 µM.
